Here are results for six compounds from US11028083B2, “Ethanediamine-heterocycle derivatives as inhibitors of protein arginine methyltransferases” (Board of Regents, The University of Texas System, priority 2018, dated 2021).

In experiment [1] the target is Full-length human GST-PRMT4 (Homo sapiens (Human), UniProt Q86X55). The experiment in a line: PRMT4 RapidFire Mass Spectrometry Selectivity Assay (SAH production). It counts as biochemical. The following applies: Rapid fire enzyme assay; 0.5 μM SAM, 15 nM Histone H3.3; read-out: PRMT-4 IC50. The text has this: Full-length human GST-PRMT4 (SignalChem, catalog#P365-380DG) was expressed by baculovirus in Sf9 insect cells.
Chain of Full-length human GST-PRMT4 (Q86X55 whole entry): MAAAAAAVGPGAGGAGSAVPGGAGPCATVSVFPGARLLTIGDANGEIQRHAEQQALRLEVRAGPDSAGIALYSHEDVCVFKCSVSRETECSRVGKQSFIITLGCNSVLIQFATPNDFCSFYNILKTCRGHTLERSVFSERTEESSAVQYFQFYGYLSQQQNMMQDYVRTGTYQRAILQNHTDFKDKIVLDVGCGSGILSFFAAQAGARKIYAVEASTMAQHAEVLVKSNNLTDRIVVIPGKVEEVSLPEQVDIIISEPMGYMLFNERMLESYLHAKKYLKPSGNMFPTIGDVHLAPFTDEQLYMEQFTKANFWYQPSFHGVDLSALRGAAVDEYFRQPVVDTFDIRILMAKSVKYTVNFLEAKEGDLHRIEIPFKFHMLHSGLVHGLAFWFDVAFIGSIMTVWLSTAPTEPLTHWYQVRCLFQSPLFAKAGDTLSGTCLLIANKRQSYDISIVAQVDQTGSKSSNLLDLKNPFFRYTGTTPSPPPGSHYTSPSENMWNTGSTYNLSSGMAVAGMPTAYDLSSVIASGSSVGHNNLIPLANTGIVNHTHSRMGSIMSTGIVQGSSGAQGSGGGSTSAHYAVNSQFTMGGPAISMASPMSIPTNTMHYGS

The target of experiment [2] is Full-length human PRMT6 (1-375) (Homo sapiens (Human), UniProt Q96LA8). The experiment in a line: PRMT6 RapidFire Mass Spectrometry Selectivity Assay (SAH production). The following applies: read-out: PRMT-6 IC50; Rapid fire enzyme assay; 3 μM SAM, 250 nM Histone H4 (36-50) K44 MeI.
Chain of Full-length human PRMT6 (1-375) (Q96LA8 whole entry): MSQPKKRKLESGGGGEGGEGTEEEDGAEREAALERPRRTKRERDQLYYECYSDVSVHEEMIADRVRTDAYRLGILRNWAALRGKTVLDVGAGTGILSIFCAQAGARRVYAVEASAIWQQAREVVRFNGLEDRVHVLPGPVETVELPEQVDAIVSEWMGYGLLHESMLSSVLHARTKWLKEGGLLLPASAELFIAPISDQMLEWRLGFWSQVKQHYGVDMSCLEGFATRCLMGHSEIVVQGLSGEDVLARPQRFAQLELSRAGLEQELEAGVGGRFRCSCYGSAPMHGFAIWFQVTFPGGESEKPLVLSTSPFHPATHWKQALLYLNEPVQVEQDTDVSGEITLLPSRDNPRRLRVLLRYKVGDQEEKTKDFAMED
Description: The PRMT6 assay was performed by dispensing 6 uL/well (final concentration of 10 nM) of PRMT6 protein diluted in assay buffer to the plate. Stock solutions of the test compounds were prepared in 100% DMSO (Sigma, Catalog #D2650) and serially diluted 1:3 using 100% DMSO. Compounds were additionally diluted 1:50 in assay buffer, and 6 μL/well were transferred to the assay plate. Plates were allowed to incubate for 15 min at room temperature.
RapidFire buffer A contained H2O and buffer B was 80% acetonitrile/H2O. […] SAH peaks were integrated using RapidFire peak software and IC50 values were calculated using a four-parameter logistic curve fit using Genedata Screener software.
The next experiment concerns the target PRMT1 (Homo sapiens (Human), UniProt Q99873). The experiment is described as follows: PRMT1 Enzymatic Assay (LANCE TR-FRET, methylation of histone H4 at Arg3). The following applies: PRMT-1 Enzymatic Assay; 1 μM SAM, 25 nM biotinylated histone H4 (1-21). Format: biochemical. How it is done:
In order to measure PRMT1 enzymatic activity the LANCE TR-FRET assay from PerkinElmer was used to follow the methylation of histone H4 at Arg3 using S-adenosyl-L-methionine (SAM) as the methyl group donor.
Final concentrations of PRMT1, SAM, and histone H4 (1-21) refer to a 10 μL volume.
Detection of methylated histone H4 (H4R3me) was achieved by combining LANCE Ultra Europium-anti-H4R3me antibody (PerkinElmer, Catalog #TRF04-14), LANCE Ultra ULight-anti-streptavidin antibody (PerkinElmer, Catalog #TRF0102), and sinefungin (Sigma, Catalog #S8559) (final concentrations 2 nM, 50 nM, and 100 μM respectively) in 1×LANCE detection buffer (PerkinElmer, Catalog #CR97-100) and adding 10 μL/well of the detection solution to the assay plate. Detection reagents were allowed to react for 1 hour at room temperature. Final concentrations in the detection solution refer to a 20 μL volume.

For experiment [3], the target named is Full-length human PRMT1 (1-361) (Homo sapiens, UniProt Q99873). The experiment in a line: PRMT1 RapidFire Mass Spectrometry Selectivity Assay (SAH production). Format: biochemical. The following applies: Rapid fire enzyme assay; 1 μM SAM, 50 nM histone H4 (1-21); read-out: PRMT-1 IC50.
The next experiment concerns the target PRMT1 in RKO cells (Homo sapiens (Human), UniProt Q99873). The experiment in a line: PRMT1 RKO Cellular Target Engagement Assay (In-Cell Western, asymmetric di-methyl arginine). The following applies: PRMT-1 Target Engagement, 48 hr compound incubation. Format: cell-based.

What is called IC50 is the concentration that inhibits the measured activity by half.

Structures are written as SMILES.

Chain of PRMT1 (Q99873 whole entry): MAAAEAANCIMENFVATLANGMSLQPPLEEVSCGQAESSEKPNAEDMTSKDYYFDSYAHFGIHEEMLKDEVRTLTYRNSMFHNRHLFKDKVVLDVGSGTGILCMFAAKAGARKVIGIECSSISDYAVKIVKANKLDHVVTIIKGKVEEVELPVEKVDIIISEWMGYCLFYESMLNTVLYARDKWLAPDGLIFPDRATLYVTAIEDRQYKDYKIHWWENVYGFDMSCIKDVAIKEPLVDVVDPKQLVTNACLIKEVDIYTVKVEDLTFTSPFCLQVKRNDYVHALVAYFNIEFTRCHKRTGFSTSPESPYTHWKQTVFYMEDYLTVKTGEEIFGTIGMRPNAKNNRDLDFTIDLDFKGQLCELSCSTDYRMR
Chain of PRMT1 in RKO cells (Q99873 whole entry): as above
Description for PRMT1 in RKO cells: In preparation for the In-Cell Western assay, cells were harvested and resuspended in EMEM media supplemented with 10% fetal bovine serum. […] The culture plate was incubated for 24 hr at 37° C. with 5% CO2 and ambient O2. […] The primary antibody was then removed, and the plate was washed three times with 1×PBST. […] The plate was then incubated in the dark, at room temperature for 1 hour followed by three washes with 1×PBST and one wash with H2O. The IRDye secondary antibody signal (800 channel) and the CellTag signal (700 channel) were measured using a Licor Odyssey Imager, and the 800 channel signal was then normalized to the 700 channel signal. IC50 values were calculated using a four-parameter logistic curve fit using Genedata Screener software.

In the case of `CCOCC1(COCC)CCC(c2c(CN(C)CCNC)nn3c2CCC3)CC1` [Example 2, N^1-((3-(4,4-bis(ethoxymethyl)cyclohexyl)-5,6-dihydro-4H-pyrrolo[1,2-b]pyrazol-2-yl)methyl)-N^1, N^2-dimethylethane-1,2-diamine], in experiment [1], the IC50 came out at 79 nM.

For the compound `CNCCN(C)Cc1nn2c(c1C1CCCCC1)CCC2` [Example 11, N^1-((3-cyclohexyl-5,6-dihydro-4H-pyrrolo[1,2-b]pyrazol-2-yl)methyl)-N^1,N^2-dimethylethane-1,2-diamine], the concentration for half-maximal inhibition (IC50) came to 99 nM in experiment [2]; 44 nM against PRMT1; 654 nM in experiment [1]; 93 nM in experiment [3]; 14000 nM on PRMT1 in RKO cells.

On to `CNCCN(C)Cc1nn2c(c1C1CCCCC1)CCCC2` [Example 21, N^1-((3-cyclohexyl-4,5,6,7-tetrahydropyrazolo[1,5-a]pyridin-2-yl)methyl)-N^1,N^2-dimethylethane-1,2-diamine], for which the IC50 in experiment [1] was 1120 nM.

With `CNCCN(C)Cc1nn2c(c1C1CCC3(CCCC3)CC1)CCC2` [Example 49, N^1,N^2-dimethyl-N^1-((3-(spiro[4.5]decan-8-yl)-5,6-dihydro-4H-pyrrolo[1,2-b]pyrazol-2-yl)methyl)ethane-1,2-diamine], in experiment [1], the half-maximal inhibitory concentration (IC50) turned out to be 114 nM.

Consider `CNCCN(C)Cc1nn2c(c1C1CCC(C)(C)CC1)CCC2` [Example 51, N^1-((3-(4,4-dimethylcyclohexyl)-5,6-dihydro-4H-pyrrolo[1,2-b]pyrazol-2-yl)methyl)-N^1,N^2-dimethylethane-1,2-diamine], for which the half-inhibitory concentration (IC50) in experiment [1] was 337 nM.

In the case of `CCOCC1(COCC)CCC(c2c(CNCCN)nn3c2CC(F)(F)C3)CC1` [Example 92, N^1-((3-(4,4-bis(ethoxymethyl)cyclohexyl)-5,5-difluoro-5,6-dihydro-4H-pyrrolo[1,2-b]pyrazol-2-yl)methyl)ethane-1,2-diamine], the half-inhibitory concentration (IC50) at PRMT1 stood at 73 nM.
